From PubChem BioAssay (NCI)
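Growth conditions: 96-well plates. Treatment: test compound, 48 hours, 5 concentrations. Analysis: linear interpolation between bracketing concentrations; unreached endpoints set to highest concentration. GI50 is the concentration that inhibits growth by half. TGI: concentration producing complete growth inhibition.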

Key:
Test in all cases: NCI-60 cell line screen, 48 h
[1] = tested on: SK-MEL-2 melanoma
[2] = tested on: SF-539 CNS
[3] = tested on: SF-268 CNS
[4] = tested on: HCT-15 colon
[5] = tested on: SK-MEL-28 melanoma
[6] = tested on: UO-31 renal
[7] = tested on: SK-MEL-5 melanoma
[8] = tested on: K-562 leukemia
[9] = tested on: IGROV1 ovarian
[10] = tested on: HS 578T breast
[11] = tested on: MDA-MB-435
[12] = tested on: SK-OV-3 ovarian
[13] = tested on: CAKI-1 renal
[14] = tested on: RXF 393 renal
[15] = tested on: OVCAR-3 ovarian
[16] = tested on: SF-295 CNS
[17] = tested on: SNB-75 CNS
[18] = tested on: NCI-H522 lung
[19] = tested on: SNB-19 CNS
[20] = tested on: TK-10 renal
[21] = tested on: 786-0 renal
[22] = tested on: OVCAR-4 ovarian
[23] = tested on: A549 NSCLC
[24] = tested on: NCI/ADR-RES ovarian
[25] = tested on: DU-145 prostate
[26] = tested on: MOLT-4 leukemia
[27] = tested on: SN12C renal

SMILES: COc1ccc2c(CNCCCCO)cc3cc4c(cc3c2c1)OCO4
- GI50 [1]: 1.63 µM
- TGI [1]: 3.93 µM
- GI50 [2]: 1.26 µM
- TGI [2]: 4.13 µM
- GI50 [3]: 0.151 µM
- TGI [3]: 1.15 µM
- GI50 [4]: 1.43 µM
- TGI [4]: 8.61 µM
- GI50 [5]: 4.93 µM
- TGI [5]: 11 µM
- GI50 [6]: 0.21 µM
- TGI [6]: 4.12 µM
- GI50 [7]: 0.818 µM
- TGI [7]: 2.13 µM
- GI50 [8]: 1.07 µM
- TGI [8]: 20.3 µM
- GI50 [9]: 0.407 µM
- TGI [9]: 4.75 µM
- GI50 [10]: 0.929 µM
- TGI [10]: 4.1 µM
- GI50 [11]: 0.982 µM
- TGI [11]: 3.54 µM
- GI50 [12]: 4.2 µM
- TGI [12]: 23.8 µM
- GI50 [13]: 0.628 µM
- TGI [13]: 2.96 µM
- GI50 [14]: 0.68 µM
- TGI [14]: 2.49 µM
- GI50 [15]: 0.984 µM
- TGI [15]: 4.95 µM
- GI50 [16]: 0.624 µM
- TGI [16]: 4.68 µM
- GI50 [17]: 2.02 µM
- TGI [17]: 6.67 µM
- GI50 [18]: 0.228 µM
- TGI [18]: 2.93 µM
- GI50 [19]: 1.71 µM
- TGI [19]: 9.78 µM
- GI50 [20]: 1.85 µM
- TGI [20]: 9.98 µM
- GI50 [21]: 1.63 µM
- TGI [21]: > 32.2 µM
- GI50 [22]: 2.31 µM
- TGI [22]: 7.54 µM
- GI50 [23]: 0.552 µM
- TGI [23]: 6.07 µM
- GI50 [24]: 1.45 µM
- TGI [24]: 8.12 µM
- GI50 [25]: 1.33 µM
- TGI [25]: 7.09 µM
- GI50 [26]: 0.263 µM
- TGI [26]: 3.94 µM
- GI50 [27]: 1.92 µM
- TGI [27]: 7.72 µM
